Source: US9538734B2, “Germ cell ablation compounds and uses thereof” (THE GENERAL HOSPITAL CORPORATION, priority 2013, dated 2017)

Assays:
[1] = test system: primordial germ cells (PGCs); assay: PGC ablation in transgenic zebrafish embryos expressing GFP in PGCs (small molecule screen); format: in vivo
Procedure: (§1) In an effort to discover pathways essential for PGC maintenance, a small molecule screen for compounds that promote disappearance of PGCs was performed. The screen was performed with transgenic zebrafish embryos that express GFP exclusively in PGCs. Of 7,000 small molecules screened, three caused disappearance of PGCs without causing other observable changes in embryonic development. The three PGC-ablating compounds were close structural analogs of each other, and the representative compound from this class was named primordazine (FIG. 1A). […] PGC loss was confirmed by multiple PGC lineage markers (FIG. 1B).
Optimization is driven primarily by potency, meaning that each compound acquired is tested for potency, and potency changes influence subsequent rounds of compound design. For testing compounds, 3-5 transgenic zebrafish embryos (expressing GFP from the vasa promoter) are placed in each well of clear-bottom, black-wall 96 well plates. Embryos are treated with DMSO or varying doses of a compound in two-fold dilutions from 8 uM to 16 nM, beginning at 2 h postfertilization. At 24 h, the plate is loaded onto the screening microscope, which systematically scans wells and captures fluorescent images of fish in each well. The efficacy of each compound dose in ablating PGCs is recorded, yielding an EC50 for each compound.

[2] = test system: primordazine response element (PRE) of nanos1 3′ UTR; assay: Translation of injected GFP reporter RNA fused to nanos1 3′ UTR / PRE; format: in vivo, zebrafish; settings: for translation of EGFP: EGFP mRNA fused to 120 bases of nanos1 3′UTR
Excerpt: During the process of confirming PGC loss in primordazine-treated embryos, it was discovered that GFP translation was highly sensitive to primordazine treatment when fused to the 3′ UTR of the nanos1 gene, but not when fused to other 3′ UTRs. The 3′ UTR of the nanos1 gene was examined for elements capable of conferring primordazine sensitivity. […] This sequence is called the Primordazine Response Element (PRE). […] When other sequences from the nanos1 3′ UTR are used, primordazine has no effect on GFP expression.
mRNA translation is tested using the same GFP reporter depicted in FIG. 2. This reporter consists of GFP mRNA fused to the nanos1 3′ UTR with a mutant miR-430 site. When injected into one-cell stage zebrafish, GFP is expressed in both germ and somatic cells (Giraldez, A. J. et al. Zebrafish MiR-430 promotes deadenylation and clearance of maternal mRNAs. Science 312, 75-79 (2006); Mishima, Y. et al. Differential regulation of germline mRNAs in soma and germ cells by zebrafish miR-430. Curr Biol 16, 2135-2142 (2006)). […] As such, the quantity of mRNA is increased as detected by qPCR, but the quantity of GFP protein diminishes, as determined by quantitative fluorescence microscopy (see FIG. 2 for an example). Mutant animals were injected with the GFP reporter mRNA and quantify the amount of mRNA and protein present at 11 and 24 hours. Attention was paid to the effects of the mutations on baseline translation of GFP and also for effects of the mutations on responsiveness to primordazine.

[3] = test system: nanos1 mRNA; assay: nanos1 mRNA level (quantitative PCR) and localization (fluorescent in situ hybridization, confocal microscopy); format: in vivo, zebrafish
Excerpt: Therefore, mRNA destabilization is not the mechanism by which primordazine blocks nanos1 expression. Next, fluorescent in situ hybridization and confocal microscopy were used to examine the localization of nanos1 mRNA within germ cells.

[4] = test system: GFP labeled PGCs; assay: Count of GFP labeled PGCs in tilapia embryos exposed to primordazine; format: in vivo, Tilapia (Oreochromis niloticus); settings: for reduction in PGCs number: 5 uM; for GFP labeled cells in midline trunk region: 1 cell stage embryos, 3 day old; for reduction in PGCs number compared to control: after 3 days, 28° C.
Procedure: Tilapia (Oreochromis niloticus) lines used in this study are derived from a Brazilian strain obtained from a US commercial producer. To study PGCs, assays were performed on embryos from female tilapia carrying the Zpc5:eGFP:tnos 3′UTR construct which produce embryos with GFP labeled PGCs. The tilapia Zpc5 promoter is an oocyte specific promoter, active during oogenesis prior to the first meiotic division. As such, all embryos from an heterozygous transgenic female inherit the eGFP:tnos 3′UTR mRNA, which localizes and become expressed exclusively in PGCs through the action of cis-acting RNA element in their 3′UTR (tilapia nanos 3′UTR). In this system GFP expression in the embryo is strictly maternal. Thus, similarly to zebrafish nos1 3′UTR, tilapia nanos 3′ UTR (tnos 3′UTR) can deliver mRNA and subsequently heterologous protein expression to the PGCs in developing embryos. In this line, GFP expression is first observed in 2 day old embryos, progeny of transgenic female. At 3 days post fertilization (dpf) in 28° C. water, GFP-expressing cells coalesced in two bilateral rows on the midline above the intestine (FIG. 41A). The GFP labeled primordial germ cell can be visualized for up to 6 days post fertilization but fluorescence starts to fade between days 4 & 5. Primordazine treatment: Embryos at different developmental stages were placed into hatching water at 28° C. in plastic Petri dishes with gentle stirring. The first cell division takes place approximately two hours post fertilization (hpf) and gastrulation begins at around 10 hpf. We transferred pre-gastrula (2 hpf, 5 hpf) and post-gastrula embryos (15 hpf) to 96 well plates (1-2 embryos/well) prefilled with hatching water supplemented with 2 fold dilution series of primordazine from 20 uM to 2.5 uM or DMSO (control). The 96 well plate was placed under gentle stirring in a temperature control room at 28° C. At time intervals, embryos were analyzed for GFP expression under a fluorescence dissecting microscope (Zeiss Stereo Discovery.V8) equipped with a GFP filter set. To quantify primordazine activity, 3 day old embryos were placed in fresh water and PGCs were counted. At this stage, in the non-treated control group, approximately 95% of PGCs have migrated to the genital ridges.

[5] = test system: DHX9; assay: Primordazine affinity matrix pull-down with iTRAQ; format: binding; settings: whole zebrafish lysates, with and without competition from free primordazine
Procedure: A primordazine derivative was synthesized in which an 8-atom linker was appended from the indole nitrogen, terminating in a carboxylic acid (FIG. 4B). […] The derivatized primordazine was then coupled to Affi-Gel 102 agarose beads, generating an affinity matrix (FIG. 4C). The affinity matrix was incubated with whole zebrafish lysates with and without competition from free primordazine, and iTRAQ was used to identify any primordazine-binding proteins. An RNA helicase, DHX9, was identified as binding specifically to the affinity matrix, along with two RNA-binding adapter proteins HNRNPH1 and HNRNPA2B1.

[6] = molecular target: T1, dCTPP1 (Homo sapiens, UniProt Q9H773); assay: Western blot confirmation of binding to primordazine beads
T1 sequence (Q9H773 1-170): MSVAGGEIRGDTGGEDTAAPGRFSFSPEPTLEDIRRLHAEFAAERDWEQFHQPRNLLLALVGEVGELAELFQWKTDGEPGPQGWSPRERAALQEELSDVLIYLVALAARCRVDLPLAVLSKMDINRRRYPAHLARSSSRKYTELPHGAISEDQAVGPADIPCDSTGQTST

[7] = molecular target: T2, pgam5 (Homo sapiens, UniProt Q96HS1); assay: Western blot confirmation of binding to primordazine
T2 sequence (Q96HS1 1-289): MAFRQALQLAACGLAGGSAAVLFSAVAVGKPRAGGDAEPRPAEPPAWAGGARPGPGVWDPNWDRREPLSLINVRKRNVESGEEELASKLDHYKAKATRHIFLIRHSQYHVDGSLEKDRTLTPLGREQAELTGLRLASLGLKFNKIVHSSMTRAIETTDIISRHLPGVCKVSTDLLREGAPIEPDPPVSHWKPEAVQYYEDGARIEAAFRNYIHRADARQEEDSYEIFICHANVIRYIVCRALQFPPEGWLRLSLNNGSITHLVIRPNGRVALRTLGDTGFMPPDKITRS

[8] = test system: zebrafish embryos; assay: Sex of adults after embryonic treatment; format: in vivo; settings: embryos treated during early development
[9] = test system: zebrafish embryos; assay: Observable effects on embryonic development, apoptosis; format: in vivo
Procedure: as §1

[10] = test system: PRE-containing mRNAs; assay: Translation of GFP mRNA tagged with nanos1 3′UTR in mammalian cell lines (western blotting); format: cell-based; settings: GFP mRNA tagged with 120 bases from nanos1 3′UTR, transfected mammalian cell lines
Procedure: GFP mRNA was tagged with 120 bases from the nanos1 3′UTR and transfected into various mammalian cell lines. The effect of primordazine was determined by western blotting.

[11] = test system: deadend 3′UTR; assay: Translation of GFP message tagged with fragments of the deadend 3′UTR; settings: in vivo
Excerpt: FIG. 26 illustrates that, in addition to regulating the translation of proteins containing elements from the nanos1 3′ UTR, primordazine blocks translation of proteins from mRNAs containing the deadend 3′UTR.

binding of DHX9 [5]: Binds | binding of dCTPP1 [6]: bind | binding of pgam5 [7]: bind
SMILES: CCC(Sc1nnc2c3ccccc3n(CC)c2n1)C(=O)Nc1cccc(C(C)=O)c1 (centres unmarked) [primordazine]
concentration for maximal efficacy of germ cell ablation ([1]; egg / hatching water concentration): 6 µM | PGC-ablating activity ([1]; zebrafish embryos, GFP in PGCs): ablates PGCs in a dose-dependent manner | effective concentration in zebrafish embryos ([1]; zebrafish, in vivo): high nanomolar to low micromolar | translation of EGFP ([2]; absence of polyadenylation): effectively blocked translation | translation of EGFP ([2]; polyadenylated in vitro prior to injection): failed to block translation | translation of GFP protein ([2]; GFP mRNA followed by the nanos1 3′ UTR): prevents its translation | stability of GFP reporter mRNA ([2]; GFP mRNA with nanos1 3′ UTR): stabilizes the mRNA | translation of GFP RNA ([2]; PRE placed in its 3′ UTR, RNA injected into zebrafish): blocked | GFP expression ([2]; other sequences from the nanos1 3′ UTR): no effect | localization of nanos1 mRNA within germ cells ([3]; fluorescent in situ hybridization, confocal microscopy): became localized to discrete puncta | nanos1 mRNA levels ([3]; quantitative PCR): no decrease | reduction in PGCs number ([4]; later time point (13 hour old embryos)): 41% | reduction in PGCs number ([4]; treatment begins at 2 hpf): 72% | GFP labeled cells in midline trunk region ([4]; 10 uM): marked reduction in number | reduction in PGCs number compared to control ([4]; 10 uM, 5 hours old embryos): 47% | GFP labeled cells in midline trunk region ([4]; 20 uM): complete disappearance | reduction in PGCs number compared to control ([4]; 20 uM, 5 hours old embryos): 67% | level of GFP intensity in PGCs ([4]; 5 hours old embryos): reduced | sex when adult [8]: tend to be males | apoptosis ([9]; FIG. 12): does not cause apoptosis | effect on development or organogenesis ([9]; effective doses): no visible effect | translation of PRE-containing mRNAs [10]: inhibits translation | translation of EGFP from mRNAs containing the deadend 3′UTR [11]: blocks the translation
